Assays:
larvae of An. gambiae = conditions: used with common methodologies; cited from earlier work
An. gambiae embryos = conditions: used as permeabilization reagents; cited from earlier work
[1] = test system: An. stephensi SD500 mosquito eggs; assay: Hatch rate of An. stephensi eggs after two-step CPA incubation, plunge into LN2 and thawing/dilution; type: in vivo, Anopheles stephensi; conditions: for Average ranked score of hatch rates (1 best to 4): thirteen experiments
Procedure: (§1) CPA was contained in a polypropylene 19 mm diameter×19 mm deep paint mixing pot (Michaels 10271583) embedded in a custom aluminum block machined to cover a Peltier-cooled block (Torrey Pines Scientific, IC22XT). CPA was equilibrated to temperature for >2 h prior to addition of eggs for the first incubation step at −6.8° C. Temperature was monitored using a digital thermometer with type-T thermocouple probe in a control sample in the block. Several relatively low molecular weight CPAs were evaluated at different concentrations for toxicity by incubation at 0° C. for up to 15 minutes, including: dimethylacetamide, dimethylformamide, dimethyl sulphoxide, ethanol, ethylene glycol, formamide, glycerol, H4-methanol (also referred to herein as “methanol”), D4 (deuterated)-methanol, D4/^13C-methanol, methylacetamide, propanediol, (sourced from SigmaAldrich); combinations in different ratios were also evaluated.

Anopheles eggs [2] = assay: Evaluation of low molecular weight CPAs and CPA concentrations for toxicity and egg viability; type: in vivo, Anopheles stephensi
Procedure: as §1
Percentages (v/v) of methanol and D4-methanol in water solutions were evaluated at between 50% and 100% aqueous CPA, namely, 50%, 70%, and 90%, and compared to CPA concentrations of 100%.

[3] = ambient temperatures; cited from earlier work
Anopheles eggs [4] = conditions: 100% methanol, 20 minutes at −11° C., after subsequent cooling and warming/dilution
Procedure: Control eggs warmed/diluted from −11° C. (“Control”); eggs subsequently cooled in LN2 (“LN2”) before warming/dilution.
Once the first larval hatching was recorded, subsequent experiments recorded the percentage of larval hatch rate (number of larvae×100/number of eggs in the Petri dish) on day-3 post-thaw, and this was used as the measure of survival. In experiments measuring full development, the hatched larvae were fed standard larval food, pupae were harvested and transferred to rearing pans in 300×300×300 mm cages for adult mosquito emergence.

[5] = 100% CPA, compared with 50%, 70%, 90%

Structure (SMILES) | Toxicity to larvae (larvae of An. gambiae) | Toxicity to embryos (An. gambiae embryos) | Average ranked score of hatch rates (1 best to 4) ([1]; LN2 plunge boiling −196° C.) | Average ranked score of hatch rates (1 best to 4) ([1]; LN2 plunge chilled −202° C.) | Hatch rates versus methanol ([1]; coupled with cooling by plunge into chilled LN2) | Viability of eggs (Anopheles eggs [2]; [5]) | Viability of eggs (Anopheles eggs [2]; CPA at 50% v/v in water) | Result among the CPAs evaluated (Anopheles eggs [2]; comparison of low molecular weight CPAs) | Viscosity increase relative to H4-methanol [3] | Tolerance by and permeation of untreated eggs (Anopheles eggs [2]; untreated Anopheles eggs) | Proportion of eggs hatched (Anopheles eggs [4])
OCCO [ethylene glycol, reference compound] | highly toxic | – | – | – | – | – | – | – | – | – | –
CCCCCCC [heptane] | – | extremely toxic to the embryos | – | – | – | – | – | – | – | – | –
[2H]OC([2H])([2H])[2H] [D4-Methanol, D4-methanol] | – | – | 2.47 | 2.20 | marginally improved hatch rates | highest | a small percentage of viable eggs | best results | approximately 11% | – | –
CO [Methanol, methanol] | highly toxic | – | 2.87 | 2.27 | – | highest | a small percentage of viable eggs | – | – | tolerated by, and to permeate, untreated Anopheles eggs | 15.3±4.3%

— US12484575B2, “Mosquito egg cryopreservation” (Sanaria Inc., priority 2019, dated 2025)
